Assays:
E. coli PBP2 = target: T1, E. coli PBP2 (Escherichia coli, UniProt P0AD65); experiment: Bocillin FL competition binding assay, PBP2; design: species or system Escherichia coli K12; conditions: 15 min pre-incubation
T1 construct: 100 μg's of total membrane protein extracts containing PBPs; endogenous in cells; host or cells: Escherichia coli K12, membrane protein fraction
Protocol: (§1) To determine the ability of test compounds to bind Penicillin Binding Proteins (PBPs), a competition binding assay using Bocillin FL (fluorescent derivative of penicillin V) was adapted from the classical method used to assess PBP potency of beta-lactams.
(§2) Penicillin binding proteins were isolated from Escherichia coli K12 by growth of Escherichia coli K12 from a single colony in 4 L of Luria-Bertani (LB) broth at 35° C. and 250 rpm to an OD600 nm of 0.5. The cells were harvested by centrifugation at 7,000×g for 10 min. at 4° C. Cells were resuspended and washed in 50 mM potassium phosphate pH 7.5. The cells were re-suspended in sonication buffer [50 mM Tris-HCl pH 7.5, 1 mM MgCl2, 1 mM beta-mercaptoethanol, and 5 μg/mL DNAse I] and sonicated by 4 passes of 30 seconds at 45 W on ice. The sample was clarified by centrifugation at 3,000×g to remove cell debris and unbroken cells and supernatant containing the membrane proteins was retained. The membrane proteins including the PBPs were further purified from soluble constituents by an ultracentrifugation step at 100,000×g for 30 min. at 4° C. The membrane proteins are washed twice with 10 mM sodium phosphate pH 7, resuspended in a volume of 5 mL, quantitated by BCA assay, adjusted to […] and frozen at −80° C. until use.
(§3) The adapted Bocillin FL competition binding method described herein incorporates a 15 min. pre-incubation of test compound with isolated PBPs to attempt to balance the difference in mechanism of inhibition between beta-lactams (largely irreversible covalent bond to active site Serine) and the boron-containing PBP inhibitor test compounds (reversible covalent bond to active site Serine). Briefly, 50 μL reactions consisted of 100 μg's of total membrane protein extracts containing PBPs incubated with a dilution series of test compound ranging from 0.005 μg/mL to 2,480 μg/mL in 10 mM sodium phosphate pH7 containing 350 mM NaCl. Thirty minute reactions at 35° C. were initiated by addition of […] Bocillin FL, quenched by addition of SDS-PAGE loading buffer containing sodium dodecyl sulfate (SDS) and heated for 15 minutes at 95° C. to denature proteins in preparation for SDS-polyacrylamide gel electrophoresis. The Bocillin FL labeled PBPs are then separated by SDS-PAGE in Novex NuPage 10% Bis-Tris pre-cast gels (Invitrogen). The SDS-PAGE gel, post-electrophoresis, is then washed in water to remove excess SDS for 10 minutes at room temperature and placed on the scanning bed of a GE Healthcare/Amersham Biosciences Storm 860 fluorescence scanner. The excitation wavelength is in the blue spectrum at 450 nm and the emission at 520 nm is captured by the instrument. Effective PBP inhibitors are detected by a reduction in Bocillin FL labeling of the particular PBP over the dose range of test compound in a dose-responsive manner. High molecular weight PBP 1a/1b are not resolved by these gels, thus we report HMW PBP binding results in μg/mL for PBPs 1a/1b combined as well as for PBP2 and PBP3.
(§4) Representative results are shown in Table 2, where A represents a potency of >1000 μg/mL, B represents a potency between 64 and 1000 μg/mL inclusive, and C represents a potency of <64 μg/mL. NT=Not Tested.

S. aureus ATCC 29213 = experiment: Broth microdilution MIC assay, S. aureus; assay type: cell-based; conditions: Staphylococcus aureus, ATCC29213; broth microdilution, 16-20 hours at 37° C.; read-out: S. aureus 29213 MIC
Method in brief: (§5)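 CLSI broth microdilution in cation-supplemented Mueller-Hinton broth; 2-fold serial compound dilutions inoculated at 5×10^5 CFU/mL from 3-5 h log-phase cultures. Plates incubated 16-20 hours at 37° C. MIC read visually as lowest concentration with no bacterial growth.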

[1] = test system: hyper-permeable E. coli 901C; experiment: Broth microdilution MIC assay, hyper-permeable E. coli; assay type: cell-based; conditions: Escherichia coli, read-out: E. coli 901C MIC
Method in brief: as §5

E. coli PBP3 = target: T2, E. coli PBP3 (Escherichia coli, UniProt P0AD68); experiment: Bocillin FL competition binding assay, PBP3; design: species or system Escherichia coli K12; conditions: 15 min pre-incubation
T2 construct: 100 μg's of total membrane protein extracts containing PBPs; endogenous in cells; host or cells: Escherichia coli K12, membrane protein fraction
Protocol: as §1, §2, §3, §4

E. coli K12 PBP1a/b = experiment: Bocillin FL competition binding assay, PBP1a/1b combined; design: species or system Escherichia coli K12; conditions: 15 min pre-incubation, PBP 1a/1b combined
Protocol: as §1, §2, §3, §4

T2 sequence (P0AD68 1-577): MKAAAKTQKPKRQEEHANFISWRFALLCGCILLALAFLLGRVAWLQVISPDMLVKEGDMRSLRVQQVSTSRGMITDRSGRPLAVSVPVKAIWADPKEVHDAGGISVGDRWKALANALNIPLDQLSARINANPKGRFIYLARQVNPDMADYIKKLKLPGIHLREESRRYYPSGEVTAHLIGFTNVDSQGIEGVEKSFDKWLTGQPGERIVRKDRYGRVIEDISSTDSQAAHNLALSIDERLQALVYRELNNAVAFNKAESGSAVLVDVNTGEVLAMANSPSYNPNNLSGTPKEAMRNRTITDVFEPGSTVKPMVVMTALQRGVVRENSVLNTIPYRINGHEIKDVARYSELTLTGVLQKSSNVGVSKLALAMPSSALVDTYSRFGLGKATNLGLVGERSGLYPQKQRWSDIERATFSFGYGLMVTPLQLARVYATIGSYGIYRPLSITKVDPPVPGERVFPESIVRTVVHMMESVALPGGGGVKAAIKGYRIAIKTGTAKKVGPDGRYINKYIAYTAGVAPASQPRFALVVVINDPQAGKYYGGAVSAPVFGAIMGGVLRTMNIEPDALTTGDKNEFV
T1 sequence (P0AD65 whole entry): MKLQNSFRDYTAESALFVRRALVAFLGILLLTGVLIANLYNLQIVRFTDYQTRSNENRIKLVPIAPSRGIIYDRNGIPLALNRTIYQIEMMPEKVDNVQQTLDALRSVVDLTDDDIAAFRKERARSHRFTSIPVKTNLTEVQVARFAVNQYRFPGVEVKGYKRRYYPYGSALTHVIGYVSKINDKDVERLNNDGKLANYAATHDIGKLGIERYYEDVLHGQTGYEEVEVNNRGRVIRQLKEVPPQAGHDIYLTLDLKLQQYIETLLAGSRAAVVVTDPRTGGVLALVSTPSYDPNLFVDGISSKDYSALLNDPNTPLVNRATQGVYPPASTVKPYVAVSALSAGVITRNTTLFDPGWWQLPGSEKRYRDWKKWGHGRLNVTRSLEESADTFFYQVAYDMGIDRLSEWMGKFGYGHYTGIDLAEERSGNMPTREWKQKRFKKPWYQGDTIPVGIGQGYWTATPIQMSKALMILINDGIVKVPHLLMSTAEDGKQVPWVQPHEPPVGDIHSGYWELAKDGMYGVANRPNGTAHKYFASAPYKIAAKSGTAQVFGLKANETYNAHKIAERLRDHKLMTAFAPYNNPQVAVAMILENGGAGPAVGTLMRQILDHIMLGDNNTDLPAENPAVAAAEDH

## CN(C)C(=O)CO/N=C(\C(=O)N[C@H]1Cc2cccc(C(=O)O)c2OB1O)c1csc(N)n1 [Example 60, (R,Z)-3-(2-(2-aminothiazol-4-yl)-2-((2-(dimethylamino)-2-oxoethoxy)imino)acetamido)-2-hydroxy-3,4-dihydro-2H-benzo[e][1,2]oxaborinine-8-carboxylic Acid]
E. coli PBP2
  E. coli PBP2 Potency: C (C represents a potency of <64 μg/mL)
S. aureus ATCC 29213
  MIC: > 128 µg/mL
[1]
  MIC: < 64 µg/mL
E. coli PBP3
  E. coli PBP3 Potency: C (C represents a potency of <64 μg/mL)
E. coli K12 PBP1a/b
  E. coli K12 PBP1a/b Potency: B (B represents a potency between 64 and 1000 μg/mL inclusive)

## N#CC1CCC(NC(=O)CO/N=C(\C(=O)N[C@H]2Cc3cccc(C(=O)O)c3OB2O)c2csc(N)n2)CC1 (stereo partly drawn) [Example 62, (R)-3-((Z)-2-(2-aminothiazol-4-yl)-2-((2-(((1r,4R)-4-cyanocyclohexyl)amino)-2-oxoethoxy)imino)acetamido)-2-hydroxy-3,4-dihydro-2H-benzo[e][1,2]oxaborinine-8-carboxylic Acid]
E. coli PBP2
  E. coli PBP2 Potency: B (B represents a potency between 64 and 1000 μg/mL inclusive)
S. aureus ATCC 29213
  MIC: > 128 µg/mL
[1]
  MIC: < 64 µg/mL
E. coli PBP3
  E. coli PBP3 Potency: C (C represents a potency of <64 μg/mL)
E. coli K12 PBP1a/b
  E. coli K12 PBP1a/b Potency: B (B represents a potency between 64 and 1000 μg/mL inclusive)

## N=C(NCCN)c1ccc(OCCO/N=C(\C(=O)N[C@H]2Cc3cccc(C(=O)O)c3OB2O)c2csc(N)n2)cc1 [Example 64, (R,Z)-3-(2-((2-(4-(N-(2-aminoethyl)carbamimidoyl)phenoxy)ethoxy)imino)-2-(2-aminothiazol-4-yl)acetamido)-2-hydroxy-3,4-dihydro-2H-benzo[e][1,2]oxaborinine-8-carboxylic Acid]
E. coli PBP2
  E. coli PBP2 Potency: B (B represents a potency between 64 and 1000 μg/mL inclusive)
S. aureus ATCC 29213
  MIC: > 128 µg/mL
[1]
  MIC: < 64 µg/mL
E. coli PBP3
  E. coli PBP3 Potency: C (C represents a potency of <64 μg/mL)
E. coli K12 PBP1a/b
  E. coli K12 PBP1a/b Potency: C (C represents a potency of <64 μg/mL)

## NCCCC[C@H](NC(=O)CO/N=C(\C(=O)N[C@H]1Cc2cccc(C(=O)O)c2OB1O)c1csc(N)n1)C(=O)O [Example 65, (R)-3-((Z)-2-((2-(((S)-5-amino-1-carboxypentyl)amino)-2-oxoethoxy)imino)-2-(2-aminothiazol-4-yl)acetamido)-2-hydroxy-3,4-dihydro-2H-benzo[e][1,2]oxaborinine-8-carboxylic]
E. coli PBP2
  E. coli PBP2 Potency: B (B represents a potency between 64 and 1000 μg/mL inclusive)
S. aureus ATCC 29213
  MIC: > 128 µg/mL
[1]
  MIC: < 64 µg/mL
E. coli PBP3
  E. coli PBP3 Potency: C (C represents a potency of <64 μg/mL)
E. coli K12 PBP1a/b
  E. coli K12 PBP1a/b Potency: C (C represents a potency of <64 μg/mL)

## NCCCC[C@@H](NC(=O)CO/N=C(\C(=O)N[C@H]1Cc2cccc(C(=O)O)c2OB1O)c1csc(N)n1)C(=O)O [Example 66, (R)-3-((Z)-2-((2-(((R)-5-amino-1-carboxypentyl)amino)-2-oxoethoxy)imino)-2-(2-aminothiazol-4-yl)acetamido)-2-hydroxy-3,4-dihydro-2H-benzo[e][1,2]oxaborinine-8-carboxylic Acid]
E. coli PBP2
  E. coli PBP2 Potency: B (B represents a potency between 64 and 1000 μg/mL inclusive)
S. aureus ATCC 29213
  MIC: > 128 µg/mL
[1]
  MIC: < 64 µg/mL
E. coli PBP3
  E. coli PBP3 Potency: C (C represents a potency of <64 μg/mL)
E. coli K12 PBP1a/b
  E. coli K12 PBP1a/b Potency: C (C represents a potency of <64 μg/mL)

## NCCCCCNC(=O)CO/N=C(\C(=O)N[C@H]1Cc2cccc(C(=O)O)c2OB1O)c1csc(N)n1 [Example 67, (R,Z)-3-(2-((2-((5-aminopentyl)amino)-2-oxoethoxy)imino)-2-(2-aminothiazol-4-yl)acetamido)-2-hydroxy-3,4-dihydro-2H-benzo[e][1,2]oxaborinine-8-carboxylic Acid]
E. coli PBP2
  E. coli PBP2 Potency: B (B represents a potency between 64 and 1000 μg/mL inclusive)
S. aureus ATCC 29213
  MIC: > 128 µg/mL
[1]
  MIC: < 64 µg/mL
E. coli PBP3
  E. coli PBP3 Potency: C (C represents a potency of <64 μg/mL)
E. coli K12 PBP1a/b
  E. coli K12 PBP1a/b Potency: B (B represents a potency between 64 and 1000 μg/mL inclusive)

## CNC(=O)C(C)(C)O/N=C(\C(=O)N[C@H]1Cc2cccc(C(=O)O)c2OB1O)c1csc(N)n1 [Example 69, (R,Z)-3-(2-(2-aminothiazol-4-yl)-2-(((2-methyl-1-(methylamino)-1-oxopropan-2-yl)oxy)imino)acetamido)-2-hydroxy-3,4-dihydro-2H-benzo[e][1,2]oxaborinine-8-carboxylic Acid]
E. coli PBP2
  E. coli PBP2 Potency: C (C represents a potency of <64 μg/mL)
S. aureus ATCC 29213
  MIC: > 128 µg/mL
[1]
  MIC: < 64 µg/mL
E. coli PBP3
  E. coli PBP3 Potency: C (C represents a potency of <64 μg/mL)
E. coli K12 PBP1a/b
  E. coli K12 PBP1a/b Potency: C (C represents a potency of <64 μg/mL)

## CNC(=O)C(C)O/N=C(\C(=O)N[C@H]1Cc2cccc(C(=O)O)c2OB1O)c1csc(N)n1 (stereo partly drawn) [Example 70, (3R)-3-((Z)-2-(2-aminothiazol-4-yl)-2-(((1-(methylamino)-1-oxopropan-2-yl)oxy)imino)acetamido)-2-hydroxy-3,4-dihydro-2H-benzo[e][1,2]oxaborinine-8-carboxylic Acid]
E. coli PBP2
  E. coli PBP2 Potency: C (C represents a potency of <64 μg/mL)
S. aureus ATCC 29213
  MIC: > 128 µg/mL
[1]
  MIC: < 64 µg/mL
E. coli PBP3
  E. coli PBP3 Potency: C (C represents a potency of <64 μg/mL)
E. coli K12 PBP1a/b
  E. coli K12 PBP1a/b Potency: C (C represents a potency of <64 μg/mL)

## CC(O/N=C(\C(=O)N[C@H]1Cc2cccc(C(=O)O)c2OB1O)c1csc(N)n1)C(=O)O (stereo partly drawn) [Example 71, (3R)-3-((Z)-2-(2-aminothiazol-4-yl)-2-((1-carboxyethoxy)imino)acetamido)-2-hydroxy-3,4-dihydro-2H-benzo[e][1,2]oxaborinine-8-carboxylic Acid]
E. coli PBP2
  E. coli PBP2 Potency: C (C represents a potency of <64 μg/mL)
S. aureus ATCC 29213
  MIC: > 128 µg/mL
[1]
  MIC: < 64 µg/mL
E. coli PBP3
  E. coli PBP3 Potency: C (C represents a potency of <64 μg/mL)
E. coli K12 PBP1a/b
  E. coli K12 PBP1a/b Potency: C (C represents a potency of <64 μg/mL)

## CC(C)(O/N=C(\C(=O)N[C@H]1Cc2cccc(C(=O)O)c2OB1O)c1csc(N)n1)C(N)=O [Example 72, (R,Z)-3-(2-(((1-amino-2-methyl-1-oxopropan-2-yl)oxy)imino)-2-(2-aminothiazol-4-yl)acetamido)-2-hydroxy-3,4-dihydro-2H-benzo[e][1,2]oxaborinine-8-carboxylic Acid]
E. coli PBP2
  E. coli PBP2 Potency: C (C represents a potency of <64 μg/mL)
S. aureus ATCC 29213
  MIC: > 128 µg/mL
[1]
  MIC: < 64 µg/mL
E. coli PBP3
  E. coli PBP3 Potency: C (C represents a potency of <64 μg/mL)
E. coli K12 PBP1a/b
  E. coli K12 PBP1a/b Potency: C (C represents a potency of <64 μg/mL)

## CC(O/N=C(\C(=O)N[C@H]1Cc2cccc(C(=O)O)c2OB1O)c1csc(N)n1)C(N)=O (stereo partly drawn) [Example 73, (3R)-3-((Z)-2-(((1-amino-1-oxopropan-2-yl)oxy)imino)-2-(2-aminothiazol-4-yl)acetamido)-2-hydroxy-3,4-dihydro-2H-benzo[e][1,2]oxaborinine-8-carboxylic Acid]
E. coli PBP2
  E. coli PBP2 Potency: C (C represents a potency of <64 μg/mL)
S. aureus ATCC 29213
  MIC: > 128 µg/mL
[1]
  MIC: < 64 µg/mL
E. coli PBP3
  E. coli PBP3 Potency: C (C represents a potency of <64 μg/mL)
E. coli K12 PBP1a/b
  E. coli K12 PBP1a/b Potency: C (C represents a potency of <64 μg/mL)

From patent US11267826B2, “Penicillin-binding protein inhibitors” (priority 2017, dated 2022)
